In the oligonucleotide strings, read from the 5' end, every base follows the letter of its sugar. An asterisk marks phosphorothioate; unmarked linkages are phosphodiester. Other units and linkages are bracketed, terminal groups are in braces. A string of capitals states the bases alone. d = 2'-deoxy (DNA)

For the data set, the system named is human meltrin α RNA. Put plainly: Suppression of human meltrin α expression by antisense compound in RD cell (real time PCR). The conditions noted are these: RD cell. In kind it is cell-based. As for the experimental part: First, RD cell (ATCC) was suspended in DMEM containing 10% fetal bovine serum (FBS, SIGMA), and the suspension was inoculated in 6 well culture plate at 2.5×10^5 cells/well/2 mL. After incubating overnight at 37° C. in the presence of 5% CO2, the cells were washed twice with serum-free DMEM, and Opti-MEM medium (GIBCO) was added at 800 μL/well.
Gene transfection reagent Lipofectin (Invitrogen) was diluted with Opti-MEM to 20 μg/mL, and the dilution was allowed to stand at room temperature for 30 minutes. Next, the antisense oligodeoxynucleotide synthesized as described above was heated at 90° C. for 3 minutes, and after quenching on ice, diluted with Opti-MEM to a concentration 10 times higher than the final concentration. Equal amounts of the Lipofectin in Opti-MEM and the antisense oligo DNA in Opti-MEM were mixed, and the mixture was incubated at room temperature for 15 minutes and added to 6 well plate at 200 μL/well.
The culture was incubated at 37° C. for 4 hours in the presence of 5% CO2, and the culture supernatant containing the Lipofectin was removed. The cells were washed twice with serum-free DMEM, and after adding 1 mL/well of Opti-MEM and incubating for 18 hours at 37° C. in the presence of 5% CO2, the cells were subjected to the measurement of the level of expression of meltrin α RNA.
After the washing, RNA was isolated from the cell by using RNA isolation kit (RNeasy Micro Kit, QIAGEN) according to the protocol of the kit, and RNA concentration was determined by measuring absorbance at a wavelength of 260 nm with a spectrophotometer (Nano prop, LMS Co., Ltd.) (1OD=40 μg/mL). After the quantitation, the RNA was prepared to a concentration of 0.1 μg/μL by using DEPC-treated water.
0.35 μg of the isolated RNA, and 3.5 μL of 10× TaqMan buffer, 7.7 μL of 25 mM MgCl2, 7.0 μL of 2.5 mM each dNTP Mix, 1.75 μL of 50 μM Random Hexamers, 0.7 μL of 20 U/μL RNase inhibitor, and 0.9 μL of 50 U/μL MultiScribe Reverse Transcriptase (all purchased from Applied Biosystems) were mixed, and water was added to make up the total volume to 35 μL. This solution was maintained at 25° C. for 10 minutes, at 48° C. for 30 minutes, and at 95° C. for 5 minutes, and reverse transcription was conducted to synthesize cDNA.
A solution in total volume of 20 μL containing 10 μL of TaqMan Universal PCR Master Mix, 0.4 μL of 10 μM TaqMan MGB Probe (sequence 5′FAM-caccgaaggacaatccca-MGB-3′: Applied Biosystems), 0.1 μL of 50 μM Forward primer (sequence ggaagccgccagattcct) for detecting meltrin α, 0.1 μL of 50 μM Reverse primer (sequence […]) for detecting meltrin α (all purchased from Sigma-Genosys), 5 μL of the cDNA solution of (3), and 4.4 μL of water was prepared, and after maintaining the solution at 50° C. for 2 minutes and at 95° C. for 10 minutes, PCR was conducted by repeating 40 cycles of 95° C. for 15 seconds and 60° C. for 1 minute in ABI Prism 7000.
The amount of the human meltrin α RNA was measured by conducting real time PCR by using the plasmid containing the cDNA coding for the human meltrin α for the template to generate the standard curve, and calculating RNA copy number of the meltrin α in each sample. The level of expression of GAPDH was also determined by using a primer and probe set for real time PCR of human GAPDH (Pre-Developed TaqMan Assay Reagents Human GAPDH (20×) (Cat# 4310884E, Applied Biosystems).
The results of the real time PCR of the meltrin α was corrected by the level of expression of the GAPDH to calculate the suppression rate. […]

As for “H092: gcccatcgtgcaggtacacg (dG*dC*dC*dC*dA*dT*dC*dG*dT*dG*dC*dA*dG*dG*dT*dA*dC*dA*dC*dG; antisense)”, for the setting “corrected by GAPDH”, the “suppression rate of expression, 200 nM” value is reported as “++ (“++” when the suppression rate was at least 50%)”.

As for “H015: cggccttcagtgcagcagct (CGGCCTTCAGTGCAGCAGCT; antisense; DNA, all phosphorothioate, methylation of C not given here)”, where the note is “corrected by GAPDH”, the “suppression rate of expression, 50 nM” value is recorded as “++ (“++” when the suppression rate was at least 50%)” and the “suppression rate of expression, 200 nM” value is “+ (“+” when the suppression rate was at least 30%)”.

In the case of “H210: ccccatagagaaggttcttt (dC*dC*dC*dC*dA*dT*dA*dG*dA*dG*dA*dA*dG*dG*dT*dT*dC*dT*dT*dT; antisense)”, under “corrected by GAPDH”, the “suppression rate of expression, 200 nM” value is “++ (“++” when the suppression rate was at least 50%)”.

On to “H163: cactgtaatcaacattctgc (dC*dA*dC*dT*dG*dT*dA*dA*dT*dC*dA*dA*dC*dA*dT*dT*dC*dT*dG*dC; antisense)”, for which the “suppression rate of expression, 200 nM” value (corrected by GAPDH) is “+ (“+” when the suppression rate was at least 30%)”.

Take “H144 + 14: agaggatctgcaggcagagg (AGAGGATCTGCAGGCAGAGG; antisense; DNA, all phosphorothioate, methylation of C not given here)”: the “suppression rate of expression, 50 nM” value (corrected by GAPDH) is “++ (“++” when the suppression rate was at least 50%)”.

“H048: cagctccacatacttagttg (CAGCTCCACATACTTAGTTG; antisense; DNA, all phosphorothioate, methylation of C not given here)”: the “suppression rate of expression, 200 nM” value (corrected by GAPDH) was “++ (“++” when the suppression rate was at least 50%)”.

Take “H182: ccaaagcttcctggccagaa (dC*dC*dA*dA*dA*dG*dC*dT*dT*dC*dC*dT*dG*dG*dC*dC*dA*dG*dA*dA; antisense)”: the “suppression rate of expression, 200 nM” value (corrected by GAPDH) was “++ (“++” when the suppression rate was at least 50%)”.

Regarding “H145 + 1: tctggccagaggatctgcag (TCTGGCCAGAGGATCTGCAG; antisense; DNA, all phosphorothioate, methylation of C not given here)”, the “suppression rate of expression, 50 nM” value (corrected by GAPDH) is “+++ (“+++” when the suppression rate was at least 70%)”.

Regarding “H030: gtgggtttccgtgaaactgc (GTGGGTTTCCGTGAAACTGC; antisense; DNA, all phosphorothioate, methylation of C not given here)”, for the setting “corrected by GAPDH”, the “suppression rate of expression, 200 nM” value was “+ (“+” when the suppression rate was at least 30%)”.

For “H239: ttggaatgtattagagctgg (DNA dT*dT*dG*dG*dA*dA*dT*dG*dT*dA*dT*dT*dA*dG*dA*dG*dC*dT*dG*dG; antisense)”, the “suppression rate of expression, 200 nM” value (corrected by GAPDH) is given as “+ (“+” when the suppression rate was at least 30%)”.

Regarding “H079: tggcccccgaaagactccct (dT*dG*dG*dC*dC*dC*dC*dC*dG*dA*dA*dA*dG*dA*dC*dT*dC*dC*dC*dT; antisense)”, the “suppression rate of expression, 200 nM” value (corrected by GAPDH) is listed as “++ (“++” when the suppression rate was at least 50%)”.

For the substance “H074: acaccatgggaaatgggtac (dA*dC*dA*dC*dC*dA*dT*dG*dG*dG*dA*dA*dA*dT*dG*dG*dG*dT*dA*dC; antisense)”, the “suppression rate of expression, 200 nM” value (corrected by GAPDH) is reported as “+ (“+” when the suppression rate was at least 30%)”.

“H075-OMe2: chimeric antisense oligonucleotide AAGTCcttcctgctgCAACT, uppercase 2′-methoxy nucleotides, lowercase phosphorothioate nucleotides (AAGTCCTTCCTGCTGCAACT; 2'-O-methyl at 1, 2, 3, 4, 5, 16, 17, 18, 19, 20, other sugars, backbone and T or U not given here; lowercase gap nucleotides phosphorothioate)”: the “suppression rate of expression, 200 nM” value (chimeric 2′-methoxy antisense oligonucleotides) is “+ (“+” when the suppression rate was at least 30%)”.

In the case of “H153: ctgttgaaaaaaggtgtcgg (dC*dT*dG*dT*dT*dG*dA*dA*dA*dA*dA*dA*dG*dG*dT*dG*dT*dC*dG*dG; antisense)”, the “suppression rate of expression, 200 nM” value (corrected by GAPDH) is on record as “++ (“++” when the suppression rate was at least 50%)”.

As to “H141: ggctggcaggggtctggcag (GGCTGGCAGGGGTCTGGCAG; antisense; DNA, all phosphorothioate, methylation of C not given here)”, the “suppression rate of expression, 200 nM” value (corrected by GAPDH) is “++ (“++” when the suppression rate was at least 50%)”.

In the case of “H023: ggtccccactccgaacagag (GGTCCCCACTCCGAACAGAG; antisense; DNA, all phosphorothioate, methylation of C not given here)”, the “suppression rate of expression, 200 nM” value (corrected by GAPDH) was “+ (“+” when the suppression rate was at least 30%)”.

For “H143 + 10: tgaggggggtttggcttaca (TGAGGGGGGTTTGGCTTACA; antisense; DNA, all phosphorothioate, methylation of C not given here)”, for the setting “corrected by GAPDH”, the “suppression rate of expression, 50 nM” value was “+ (“+” when the suppression rate was at least 30%)”.

As for “H180: ccctgggagcctgcctgcca (dC*dC*dC*dT*dG*dG*dG*dA*dG*dC*dC*dT*dG*dC*dC*dT*dG*dC*dC*dA; antisense)”, the “suppression rate of expression, 200 nM” value (corrected by GAPDH) is “++ (“++” when the suppression rate was at least 50%)”.

As to “H219: ttcaaggggatgctgcccaa (dT*dT*dC*dA*dA*dG*dG*dG*dG*dA*dT*dG*dC*dT*dG*dC*dC*dC*dA*dA; antisense)”, where the note is “corrected by GAPDH”, the “suppression rate of expression, 50 nM” value is recorded as “+ (“+” when the suppression rate was at least 30%)” and the “suppression rate of expression, 200 nM” value is listed as “+++ (“+++” when the suppression rate was at least 70%)”.

As to “H176: ggctctggcctgagatgggg (dG*dG*dC*dT*dC*dT*dG*dG*dC*dC*dT*dG*dA*dG*dA*dT*dG*dG*dG*dG; antisense)”, under “corrected by GAPDH”, the “suppression rate of expression, 200 nM” value is “+ (“+” when the suppression rate was at least 30%)”.

On to “H143 + 9: gaggggggtttggcttacag (GAGGGGGGTTTGGCTTACAG; antisense; DNA, all phosphorothioate, methylation of C not given here)”, for which the “suppression rate of expression, 50 nM” value (corrected by GAPDH) is reported as “+ (“+” when the suppression rate was at least 30%)”.

“H251: aggaagggctaacatgccag (DNA dA*dG*dG*dA*dA*dG*dG*dG*dC*dT*dA*dA*dC*dA*dT*dG*dC*dC*dA*dG; antisense)”: the “suppression rate of expression, 200 nM” value (corrected by GAPDH) is listed as “+++ (“+++” when the suppression rate was at least 70%)”.

On to “H142: gcctgcctaagtgcaggctt (GCCTGCCTAAGTGCAGGCTT; antisense; DNA, all phosphorothioate, methylation of C not given here)”, for which, where the note is “corrected by GAPDH”, the “suppression rate of expression, 50 nM” value is “++ (“++” when the suppression rate was at least 50%)” and the “suppression rate of expression, 200 nM” value is “++ (“++” when the suppression rate was at least 50%)”.

As to “H137 + 3: ggggctgagggacattcagg (GGGGCTGAGGGACATTCAGG; antisense; DNA, all phosphorothioate, methylation of C not given here)”, the “suppression rate of expression, 50 nM” value (corrected by GAPDH) was “++ (“++” when the suppression rate was at least 50%)”.

For “H168: caagcaggatatttcaagtt (dC*dA*dA*dG*dC*dA*dG*dG*dA*dT*dA*dT*dT*dT*dC*dA*dA*dG*dT*dT; antisense)”, the “suppression rate of expression, 200 nM” value (corrected by GAPDH) was “+ (“+” when the suppression rate was at least 30%)”.

In the case of “H137 + 1: ggctgagggacattcaggcc (GGCTGAGGGACATTCAGGCC; antisense; DNA, all phosphorothioate, methylation of C not given here)”, the “suppression rate of expression, 50 nM” value (corrected by GAPDH) is listed as “++ (“++” when the suppression rate was at least 50%)”.

(Values after patent US20080292619A1, “Pharmaceutical Composition Containing Meltrin Antagonist” (MOCHIDA PHARMACEUTICAL CO., LTD., priority 2004, published 2008).)
